For experiment [1], the system named is pPKB S473. Nature of the experiment: In-cell Western blot, pPKB S473. The format is cell-based. As to conditions: Homo sapiens; A2058 cells, treated 1 h, normalized to α-Tubulin. How it is done: (§1) A2058 cells were plated at 20,000 cells/well in a 96-well plate (Perkin Elmer, Cat. No. 6005558) and 24 h later treated with different compounds for 1 h. […] Cells were fixed with 4% paraformaldehyde for 30 min at RT, washed 2 times with 1% BSA in PBS, permeabilized with 0.1% Triton X-100 in PBS/1% BSA for 30 min at rt and blocked with 5% goat serum in PBS/1% BSA/0.1% Triton X-100 for 30 min at rt. Cells were stained with primary antibody either with rabbit anti-pPKB S473 (1:500; Cell Signalling Technology, Cat. No. 4058) combined with mouse anti-α-Tubulin (1:2000; used for normalization; Sigma, Cat. No. T9026) or with rabbit anti-pS6 S235/S236 (1:500; Cell Signalling Technology, Cat. No. 4856) combined with mouse anti-α-Tubulin (1:2000; used for normalization) over night at 4° C. After 3 times 5 min wash with PBS/1% BSA/0.1% Triton cells were treated with the secondary antibodies goat-anti-mouse IRDye680 (LICOR, Cat. No. 926-68070) and goat-anti-rabbit IRDye800 (LICOR, 926-32211) (each diluted 1:500 in PBS/1% BSA/0.1% Triton) for 1 h while shaking in the dark. Cells were washed 3 times 5 min with PBS/1% BSA/0.1% Triton and plate scanned with the Odyssey Infrared Scanning system using both 700 and 800 nm channels. […] To correct for background staining in the data analysis wells were treated only with secondary antibodies.
(§2) For data analysis the mean background signal from channel 700 nm and 800 nm were subtracted from each signal in channel 700 nm and 800 nm, respectively. The signals in each channel were normalized to the 0% inhibition and then signal ratio 800 nm over 700 nm was performed to obtain the values for either pPBK S473 or pS6 S235/S236 normalized to α-Tubulin.
(§3) IC50 values of each compound were determined by plotting the normalized pPBK S473 and pS6 S235/S236 signals, respectively, versus the compound concentrations (in logarithmic scale) and then by fitting a sigmoidal dose-response curve with variable slope to the data using GraphPad™ Prism.

The test system of experiment [2] is pS6 S235/236. Nature of the experiment: In-cell Western blot, pS6 S235/236. It counts as cell-based. As to conditions: Homo sapiens; A2058 cells, treated 1 h, normalized to α-Tubulin. The method, then:
as §1, §2, §3

Experiment [3] addresses T1, PI3K alpha (p110α) (Homo sapiens, UniProt P42336).
T1 construct: purchased Life Technologies PV4789
Nature of the experiment: In vitro PI3K alpha binding assay (time-resolved FRET, Tracer 314). As to conditions: N-terminally His-tagged PI3K alpha, 20 nM Tracer 314, 1 h at rt. How it is done:
N-terminally His-tagged PI3K alpha (Cat. No. PV4789; 0.49 mg/ml), Alexa Fluor® 647 labeled kinase Tracer 314 (Cat. No. PV6087), Biotin anti-His Tag antibody (Cat. No PV6089) and LanthaScreen® Eu-Streptavidin (Cat. No. PV5899) were purchased from Life Technologies. The 1× Kinase Buffer A consists of 50 mM HEPES pH 7.5, 10 mM MgCl2, 1 mM EGTA, and 0.01% (v/v) Brij-35 (Sigma Cat. No. B4184-100ML).
A 4-fold serial dilution of each compound to be tested was prepared in DMSO (master dilution) in a 96-well polystyrene plate (Falcon Cat. No. 353072, flat bottom) with the highest concentration at 1000 μM and the lowest at 0.004 μM. The master dilution series were diluted further 33.3-fold into Kinase Buffer A by transferring 5 μl of each concentration of diluted compound to 162 μl Kinase Buffer A in a new 96-well plate resulting to a 3-fold serially compound dilution. Based on a Tracer 314 titration experiment a working concentration of 20 nM was chosen. Therefore a 60 nM Tracer 314 solution in Kinase Buffer A was prepared resulting in a 3-fold concentrated solution. A 3-fold concentrated kinase/antibody solution at 15 nM kinase, 6 nM antibody and 6 nM Eu-Streptavidin was prepared in Kinase Buffer A. Five μl of each 3× serially diluted compound were dispensed in a 384-well plate in duplicate. Then to each well 5 μl of 3× kinase/antibody mixture was added followed by the addition of 5 μl 3× Tracer 314 solution. After 1 h incubation at rt, time-resolved FRET was measured with a Synergy 4 multi-mode microplate reader (Biotek Instruments) using the following settings: 100 μs delay before data collection, 200 μs time for data collection, 10 measurements per data point. Emission filter: 665 nm/8 nm with sensitivity set to 163 and 620 nm/10 nm with sensitivity set to 135; Excitation filter: 340 nm/30 nm; Dichroic mirror 400 nm.
For data analysis, emission ratio was calculated by dividing the signal emitted at 665 nm from the acceptor (Alexa Fluor® 647 labeled Tracer 314) by the signal emitted at 620 nm from the donor (Eu-labeled antibody). IC50 values of each compound were determined by plotting the emission ratio versus the compound concentrations (in logarithmic scale) and then by fitting a sigmoidal dose-response curve with variable slope to the data using GraphPad™ Prism.

The IC50 is the point on the concentration scale where inhibition reaches its midpoint.

T1 sequence (P42336 whole entry): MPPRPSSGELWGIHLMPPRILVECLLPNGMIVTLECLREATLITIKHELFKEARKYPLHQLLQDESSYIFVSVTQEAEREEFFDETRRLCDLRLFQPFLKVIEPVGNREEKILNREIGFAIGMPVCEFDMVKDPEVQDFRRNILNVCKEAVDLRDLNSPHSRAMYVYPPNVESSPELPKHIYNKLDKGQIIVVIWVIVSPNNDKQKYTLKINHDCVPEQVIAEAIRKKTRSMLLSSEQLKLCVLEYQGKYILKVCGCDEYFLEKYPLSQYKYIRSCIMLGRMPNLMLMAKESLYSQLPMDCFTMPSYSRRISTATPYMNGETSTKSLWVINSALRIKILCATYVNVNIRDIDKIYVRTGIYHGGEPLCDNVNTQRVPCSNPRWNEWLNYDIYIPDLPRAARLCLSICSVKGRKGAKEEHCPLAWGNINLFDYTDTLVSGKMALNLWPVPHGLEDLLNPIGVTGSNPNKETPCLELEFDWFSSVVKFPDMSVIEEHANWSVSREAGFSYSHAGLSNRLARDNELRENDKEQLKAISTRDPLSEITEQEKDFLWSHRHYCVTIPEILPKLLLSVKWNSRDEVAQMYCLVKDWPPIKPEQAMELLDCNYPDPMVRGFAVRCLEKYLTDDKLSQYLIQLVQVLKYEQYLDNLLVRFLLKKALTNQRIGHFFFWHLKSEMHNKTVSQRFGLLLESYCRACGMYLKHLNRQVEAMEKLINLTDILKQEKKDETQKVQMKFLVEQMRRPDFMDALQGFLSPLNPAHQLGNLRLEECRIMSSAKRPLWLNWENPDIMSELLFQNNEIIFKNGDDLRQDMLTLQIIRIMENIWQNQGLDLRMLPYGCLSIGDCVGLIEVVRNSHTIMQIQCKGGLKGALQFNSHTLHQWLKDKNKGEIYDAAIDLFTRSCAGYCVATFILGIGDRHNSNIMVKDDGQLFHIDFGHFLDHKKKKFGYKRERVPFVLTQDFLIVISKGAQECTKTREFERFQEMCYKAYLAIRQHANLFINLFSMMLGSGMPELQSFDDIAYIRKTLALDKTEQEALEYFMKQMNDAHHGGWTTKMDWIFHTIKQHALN
T1 sequence (P27986 whole entry partner): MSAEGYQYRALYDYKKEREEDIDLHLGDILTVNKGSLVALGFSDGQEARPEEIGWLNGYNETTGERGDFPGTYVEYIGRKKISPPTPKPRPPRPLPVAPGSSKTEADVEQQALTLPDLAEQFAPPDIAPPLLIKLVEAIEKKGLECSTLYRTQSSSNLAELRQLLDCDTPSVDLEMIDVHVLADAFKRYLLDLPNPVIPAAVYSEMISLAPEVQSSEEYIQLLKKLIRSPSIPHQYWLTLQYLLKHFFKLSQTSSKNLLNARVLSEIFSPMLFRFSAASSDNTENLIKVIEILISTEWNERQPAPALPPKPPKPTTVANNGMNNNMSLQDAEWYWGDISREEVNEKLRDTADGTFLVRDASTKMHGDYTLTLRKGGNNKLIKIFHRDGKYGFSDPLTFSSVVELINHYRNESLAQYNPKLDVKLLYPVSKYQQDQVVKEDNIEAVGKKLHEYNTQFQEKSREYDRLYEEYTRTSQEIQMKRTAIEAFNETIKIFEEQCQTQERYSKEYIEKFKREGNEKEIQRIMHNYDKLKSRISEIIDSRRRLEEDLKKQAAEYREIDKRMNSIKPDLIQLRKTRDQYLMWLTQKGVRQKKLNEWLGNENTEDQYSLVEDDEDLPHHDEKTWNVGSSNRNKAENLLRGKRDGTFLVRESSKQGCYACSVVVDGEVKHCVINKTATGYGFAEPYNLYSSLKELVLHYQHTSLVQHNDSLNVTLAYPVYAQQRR

As for `Nc1ncc(-c2nc(N3CCOCC3)c3c(n2)N2CCOC[C@@H]2C3)cn1` [Compound 25, (S)-5-(4-morpholino-5a,6,8,9-tetrahydro-5H-pyrimido[5′,4′:4,5]pyrrolo[2,1-c][1,4]oxazin-2-yl)pyrimidin-2-amine], the IC50 in experiment [1] worked out at 154 nM; in experiment [2], 98 nM; in experiment [3] it was 76 nM.

On to `Nc1ncc(-c2nc(N3CCOCC3)c3c(n2)N2CCOC[C@H]2C3)cn1` [Compound 9, (R)-5-(4-morpholino-5a,6,8,9-tetrahydro-5H-pyrimido[5′,4′:4,5]pyrrolo[2,1-c][1,4]oxazin-2-yl)pyrimidin-2-amine], for which the IC50 in experiment [1] is 145 nM; in experiment [2] it was 65 nM; in experiment [3], 411 nM.

Turning to `Nc1cc(C(F)(F)F)c(-c2nc(N3CCOCC3)c3c(n2)N2CCOC[C@H]2C3)cn1` [Compound 6, (R)-5-(4-morpholino-5a,6,8,9-tetrahydro-5H-pyrimido[5′,4′:4,5]pyrrolo[2,1-c][1,4]oxazin-2-yl)-4-(trifluoromethyl)pyridin-2-amine], the results for the IC50 in experiment [1], in experiment [2] and in experiment [3] were 425 nM, 696 nM and 390 nM, respectively.

Consider `Nc1cc(C(F)(F)F)c(-c2nc(N3CCOCC3)nc3c2C[C@@H]2COCCN32)cn1` [Compound 38, (R)-5-(2-morpholino-5a,6,8,9-tetrahydro-5H-pyrimido[5′,4′:4,5]pyrrolo[2,1-c][1,4]oxazin-4-yl)-4-(trifluoromethyl)pyridin-2-amine], for which the IC50 in experiment [1] was determined as 5910 nM; in experiment [2], 9080 nM; in experiment [3], 2620 nM.

For the molecule `Nc1cc(C(F)(F)F)c(-c2nc(N3CCOCC3)nc3c2C[C@H]2COCCN32)cn1` [Compound 54, (S)-5-(2-morpholino-5a,6,8,9-tetrahydro-5H-pyrimido[5′,4′:4,5]pyrrolo[2,1-c][1,4]oxazin-4-yl)-4-(trifluoromethyl)pyridin-2-amine], the IC50 turned out to be 833 nM in experiment [1], 2110 nM in experiment [2] and 383 nM in experiment [3].

As to `Nc1ncc(-c2nc(N3CCOCC3)nc3c2C[C@@H]2COCCN32)cn1` [Compound 41, (R)-5-(2-morpholino-5a,6,8,9-tetrahydro-5H-pyrimido[5′,4′:4,5]pyrrolo[2,1-c][1,4]oxazin-4-yl)pyrimidin-2-amine], the IC50 in experiment [1] worked out at 575 nM; in experiment [2], 574 nM; in experiment [3], 231 nM.

`Nc1cc(C(F)(F)F)c(-c2nc(N3CCOCC3)c3c(n2)N2CCOC[C@@H]2C3)cn1` [Compound 22, (S)-5-(4-morpholino-5a,6,8,9-tetrahydro-5H-pyrimido[5′,4′:4,5]pyrrolo[2,1-c][1,4]oxazin-2-yl)-4-(trifluoromethyl)pyridin-2-amine]: the IC50 came to 428 nM in experiment [1], 1090 nM in experiment [2] and 98.1 nM in experiment [3].

Turning to `Nc1ncc(-c2nc(N3CCOCC3)nc3c2C[C@H]2COCCN32)cn1` [Compound 57, (S)-5-(2-morpholino-5a,6,8,9-tetrahydro-5H-pyrimido[5′,4′:4,5]pyrrolo[2,1-c][1,4]oxazin-4-yl)pyrimidin-2-amine], the IC50 in experiment [1] came out at 1260 nM; in experiment [2] it was 594 nM; in experiment [3] it was 1640 nM.

The values above are taken from patent US9556203B2, “Conformationally restricted P13K and mTOR inhibitors” (UNIVERSITAET BASEL, priority 2013, dated 2017).
